Legend:
MKN-45 = experiment: cell viability / antiproliferative activity (WST-8), MKN-45 cells; type: cell-based; conditions: Homo sapiens; MKN-45 gastric cancer cells; 72 hours
Method: (§2) c-MET overexpressing human gastric cancer cell lines [MKN45] and [SNU638] were cultured in RPMI medium with 10% fetal bovine serum, penicillin (100 U/ml), and streptomycin (100 mg/ml), and c-MET exon 14 skipping mutant human gastric cancer cell lines [Hs746T] were cultured in DMEM media. The c-MET overexpressing human lung cancer cell line EBC-1 was cultured in MEM media with the addition of 10% fetal bovine serum, penicillin (100 U/ml), and streptomycin (100 mg/ml). […] The compound synthesized in accordance with the present invention was prepared with a raw material solution of 10 mM dissolved in DMSO (dimethyl sulfoxide), and was sequentially diluted and processed.
(§3) In order to observe the inhibitory activity on cell growth, cells were dispensed in a 96-well plate at a concentration of 5,000 cells/well, and then treated with the compound prepared at various concentrations for 72 hours. The viability of the cells was calculated using GraphicPad Prism 8.0 software by adding 10 ml per well of WST-8 (water soluble tetrazolium salt) sample, which reacts with dehydrogenase present in the electron transport system of mitochondria to produce formazon, incubated for 2 hours, and measured absorbance at 450 nm.

SNU-638 = experiment: cell viability / antiproliferative activity (WST-8), SNU-638 cells; type: cell-based, human; conditions: SNU-638 gastric cancer cells, 72 hours
Method: as §2, §3

c-MET [1] = experiment: c-MET protein degradation (Simple Western), EBC-1 cells; type: cell-based, human; conditions: EBC-1 lung cancer cells, c-MET overexpressing; 48 hours
Method: (§1) In order to assess the resolution of the compound of the present invention for c-MET expressed in cells, cells were dispensed in a 12-well plate at a concentration of 2×10^5 cells/well, and then gastric cancer cell lines were treated with samples for 24 hours and lung cancer cell lines were treated for 48 hours. Cell lysates were collected using a scraper on ice, centrifuged at 4° C. 15,000 rpm for 30 min to obtain a protein-containing supernatant. Protein expression was then measured using the Simple Western Automated Western Blot System Abby instrument using 3 μg of protein for each sample. SDS and heat-induced denaturation proteins were separated by molecular weight, attached to capillary, reacted with anti-c-MET or anti-GAPDH antibodies, which are primary antibodies, and then reacted with HRP-conjugated secondary antibodies, and analyzed the protein expression signal with compass software. Protein expression was normalized based on the expression value of GAPDH, and protein development in each sample was measured as a percentage (%) based on 100% of samples treated with 0.1% DMSO carriers, and DC50 (concentration of a compound where 50% protein inhibition is achieved) was calculated from the change in protein expression amount due to compound treatment.

c-MET [2] = experiment: c-MET protein degradation (Simple Western), SNU-638 cells; type: cell-based, human; conditions: SNU-638 gastric cancer cells, c-MET overexpressing; 24 hours
Method: as §1

EBC-1 = experiment: cell viability / antiproliferative activity (WST-8), EBC-1 cells; type: cell-based, human; conditions: EBC-1 lung cancer cells, 72 hours
Method: as §2, §3

c-MET [3] = experiment: c-MET protein degradation (Simple Western), MKN-45 cells; type: cell-based, human; conditions: MKN-45 gastric cancer cells, c-MET overexpressing; 24 hours
In short: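 Cells at 2×10^5 cells/well exposed to compound for 24 h (gastric lines) or 48 h (lung lines). Lysates (3 μg protein) probed for c-MET by capillary Simple Western, normalized to GAPDH and expressed as % of 0.1% DMSO control. DC50 is the concentration giving 50% protein reduction.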

c-MET [4] = experiment: c-MET protein degradation (Simple Western), Hs746T cells; type: cell-based, human; conditions: Hs746T gastric cancer cells, c-MET exon 14 skipping mutant; 24 hours
Method: as §1

IC50 (SNU-638; Homo sapiens) [nM]	DC50 (c-MET [1]) [nM]	DC50 (c-MET [2]) [nM]	DC50 (c-MET [3]) [nM]	Compound	further results
< 100	< 100	< 100	< 100	Cc1nn(C2CCC(=O)NC2=O)c(=O)c2cc(N3CCN(CCC(=O)N4CCC(COc5cnc(-c6cccc(Cn7nc(-c8cccc(C#N)c8)ccc7=O)c6)nc5)CC4)CC3)ccc12 (stereo not shown) [ICT-0001215]	IC50 (MKN-45): < 100 nM; IC50 (EBC-1; Homo sapiens): < 100 nM
100 to 1000	< 100	> 1000	–	N#Cc1cccc(-c2ccc(=O)n(Cc3cccc(-c4ncc(OCC5CCN(Cc6cn(C7CCC(=O)NC7=O)nn6)CC5)cn4)c3)n2)c1 (stereo not shown) [ICT-0001384, 3-{1-[(3-{5-[(1-{[1-(2,6-dioxopiperidine-3-yl)-1H-1,2,3-triazole-4-yl]methyl}piperidine-4-il)methoxy]pyrimidine-2-yl}phenyl)methyl]-6-oxo-1,6-dihydropyridazine-3-yl}benzonitrile]	IC50 (EBC-1; Homo sapiens): < 100 nM
–	< 100	< 100	< 100	Cc1nn(C2CCC(=O)NC2=O)c(=O)c2ccc(N3CCN(CCN4CCC(COc5cnc(-c6cccc(Cn7nc(-c8cccc(C#N)c8)ccc7=O)c6)nc5)CC4)CC3)cc12 (stereo not shown) [ICT-0001277, 3-(1-{[3-(5-{[1-(2-{4-[2-(2,6-dioxopiperidin-3-yl)-4-methyl-1-oxo-1,2-dihydrophthalazine-6-yl]piperazine-1-yl}ethyl)piperidine-4-il]methoxy}pyrimidine-2-yl)phenyl]methyl}6-oxo-1,6-dihydropyridazine-3-yl)benzonitrile]	DC50 (c-MET [4]): < 100 nM
–	< 100	< 100	–	3-((3-fluoro-4-(4-(2-(4-(4-(4-(2-(2-((S)-2-((5-(1-methyl-1H-pyrazole-4-yl)-1H-[1,2,3]triazolo[4,5-b]pyrazine-1-yl)methyl)morpholino)pyrimidine-5-yl)benzyl)piperazine-1-il)acetyl)piperazine-1-il)phenyl)amino)piperidine-2,6-dione [ICT-0001379]	IC50 (SNU-638): < 100 nM; IC50 (EBC-1): < 100 nM
< 100	–	–	–	N#Cc1cccc(-c2ccc(=O)n(Cc3cccc(-c4ncc(OCC5CCN(CCCCCc6ccc7c(=O)n(C8CCC(=O)NC8=O)ncc7c6)CC5)cn4)c3)n2)c1 (stereo not shown) [ICT-0001304]	–
< 100	–	–	–	Cc1nn(C2CCC(=O)NC2=O)c(=O)c2ccc(N3CCN(C4CCN(CCN5CCC(COc6cnc(-c7cccc(Cn8nc(-c9cccc(C#N)c9)ccc8=O)c7)nc6)CC5)CC4)CC3)cc12 (stereo not shown) [ICT-0001317]	–
< 100	–	–	–	Cc1nn(C2CCC(=O)NC2=O)c(=O)c2cc(F)c(N3CCN(CC4CCN(CCN5CCC(COc6cnc(-c7cccc(Cn8nc(-c9cccc(C#N)c9)ccc8=O)c7)nc6)CC5)CC4)CC3)cc12 (stereo not shown) [ICT-0001318]	–
–	< 100	< 100	< 100	Cc1nn(C2CCC(=O)NC2=O)c(=O)c2ccc(N3CCN(c4ccc(NC(=O)CN5CCC(COc6cnc(-c7cccc(Cn8nc(-c9cccc(C#N)c9)ccc8=O)c7)nc6)CC5)cc4)CC3)cc12 (stereo not shown) [ICT-0001207]	DC50 (c-MET [4]): < 100 nM
< 100	< 100	< 100	–	N#Cc1cccc(-c2ccc(=O)n(Cc3cccc(-c4ncc(OCC5CCN(CC(=O)N6CCN(c7ccc(NC8CCC(=O)NC8=O)c(F)c7)CC6)CC5)cn4)c3)n2)c1 (stereo not shown) [ICT-0001437, 3-(1-(3-(5-((1-(1-(2-(4-((2,6-dioxopiperidine-3-yl)amino)-3-fluorophenyl)piperazine-1-yl)-2-oxoethyl)piperidine-4-yl)methoxy)pyrimidine-2-yl)benzyl)6-oxo-1,6-dihydropyridazine-3-yl)benzonitrile]	IC50 (EBC-1; Homo sapiens): < 100 nM
–	–	–	100 to 1000	Cn1cc(-c2cnc3c(nnn3C[C@@H]3CN(c4ncc(-c5ccc(CN6CCN(C(=O)COCCOCCNc7ccc8c(=O)n(C9CCC(=O)NC9=O)ncc8c7)CC6)cc5)cn4)CCO3)n2)cn1 (stereo partly shown) [ICT-0000935]	IC50 (MKN-45): 100 to 1000 nM
–	< 100	< 100	–	N#Cc1cccc(-c2ccc(=O)n(Cc3cccc(-c4ncc(N5CCN(CC6CCN(c7ccc(NC8CCC(=O)NC8=O)cc7F)CC6)CC5)cn4)c3)n2)c1 (stereo not shown) [ICT-0001402]	DC50 (c-MET [4]): < 100 nM
–	–	–	100 to 1000	Cn1cc(-c2cnc3c(nnn3CC3CN(c4ncc(-c5ccc(CN6CCC(CN7CCN(c8ccc9c(=O)n(C%10CCC(=O)NC%10=O)ncc9c8)CC7)CC6)cc5)cn4)CCO3)n2)cn1 [ICT-0000978, 3-(6-(4-((1-(4-(2-((S)-2-((5-(1-methyl-1H-pyrazole-4-yl)-1H-[1,2,3]triazolo[4,5-b]pyrazine-1-yl)methyl)morpholino)pyrimidine-5-il)benzyl)piperidine-4-il)methyl)piperazine-1-yl)1-oxopthalazine-2(1H)-yl)piperidine-2,6-dione]	IC50 (MKN-45): < 100 nM
< 100	–	–	–	Cc1nn(C2CCC(=O)NC2=O)c(=O)c2cc(N3CCN(CC4CCN(CCN5CCC(COc6cnc(-c7cccc(Cn8nc(-c9cccc(C#N)c9)ccc8=O)c7)nc6)CC5)CC4)CC3)ccc12 (stereo not shown) [ICT-0001321]	–
< 100	–	–	–	N#Cc1cccc(-c2ccc(=O)n(Cc3cccc(-c4ncc(OCC5CCN(CCOCCOCCOCC#Cc6cccc7c(=O)n(C8CCC(=O)NC8=O)ncc67)CC5)cn4)c3)n2)c1 (stereo not shown) [ICT-0001307]	–

Compound	IC50 (SNU-638; Homo sapiens) [nM]	DC50 (c-MET [1]) [nM]	DC50 (c-MET [2]) [nM]	DC50 (c-MET [3]) [nM]	further results
Cc1nn(C2CCC(=O)NC2=O)c(=O)c2cc(N3CCN(C(=O)CN4CCC(COc5cnc(-c6cccc(Cn7nc(-c8cccc(C#N)c8)ccc7=O)c6)nc5)CC4)CC3)ccc12 (stereo not shown) [ICT-0001214, 3-(1-(3-(5-((1-(2-(4-(3-(2,6-dioxopiperidin-3-yl)-1-methyl-4-oxo-3,4-dihydropetalazine-6-yl)piperazine-1-il)acetyl)piperidine-4-il)methoxy)pyrimidine-2-yl)benzyl)6-oxo-1,6-dihydropyridazine-3-yl)benzonitrile]	–	–	–	< 100	IC50 (MKN-45): < 100 nM

From patent publication US20260306639A1, “DEGRADER FOR DECOMPOSING CMET PROTEIN, AND PHARMACEUTICAL COMPOSITION COMPRISING SAME” (INNOCURE THERAPEUTICS, INC., priority 2022, published 2026)
